System: HCV replicon
Experiment: Replicon based assay of HCV replication inhibition (NPT ELISA)
Type: cell-based, Hepatitis C virus
Conditions: Hepatitis C virus, replicon based assay of HCV replication inhibition; Table IV; read-out: Activity
Summary of the method: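 Huh-7 cells carrying a bicistronic HCV replicon (neo, EMCV-IRES-driven NS3–NS5B) treated overnight after seeding with usually 6 concentrations, 10 to 0.03 micromolar, for three days at 37° C without G418. Replication read as NPT level by captured ELISA; matched-DMSO wells and interferon alpha as controls.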

Compound | EC50 [µM]
N#Cc1ccc(Nc2nc(-c3cccnc3)cs2)cc1C(F)(F)F [compound 882, 4-(4-(pyridin-3-yl)thiazol-2-ylamino)-2-(trifluoromethyl)benzonitrile] | > 10
Cc1cc(C)c(Nc2nc(-c3cccnc3)cs2)c(C)c1 [compound 883, N-mesityl-4-(pyridin-3-yl)thiazol-2-amine] | > 10
Cc1ccc(Nc2nc(-c3cccnc3)cs2)cc1 [compound 884, 4-(pyridin-3-yl)-N-p-tolylthiazol-2-amine] | > 10
FC(F)(F)Oc1ccc(Nc2nc(-c3cccnc3)cs2)cc1 [compound 885, 4-(pyridin-3-yl)-N-(4-(trifluoromethoxy)phenyl)thiazol-2-amine] | 1 to 10
COc1ccc(Nc2nc(-c3cccnc3)cs2)cc1 [compound 886, N-(4-methoxyphenyl)-4-(pyridin-3-yl)thiazol-2-amine] | > 10
CC(C)c1ccc(Nc2nc(-c3cccnc3)cs2)cc1 [compound 887, N-(4-isopropylphenyl)-4-(pyridin-3-yl)thiazol-2-amine] | 1 to 10
Fc1ccc(C(F)(F)F)cc1Nc1nc(-c2cccnc2)cs1 [compound 888, N-(2-fluoro-5-(trifluoromethyl)phenyl)-4-(pyridin-3-yl)thiazol-2-amine] | 1 to 10
Fc1ccc(Nc2nc(-c3cccnc3)cs2)c(F)c1F [compound 889, N-(2,3,4-trifluorophenyl)-4-(pyridin-3-yl)thiazol-2-amine] | > 10
Fc1c(Nc2nc(-c3cccnc3)cs2)cccc1C(F)(F)F [compound 890, N-(2-fluoro-3-(trifluoromethyl)phenyl)-4-(pyridin-3-yl)thiazol-2-amine] | 1 to 10
FC(F)(F)c1ccc(Nc2nc(-c3cccnc3)cs2)cc1 [compound 891, N-(4-(trifluoromethyl)phenyl)-4-(pyridin-3-yl)thiazol-2-amine] | 1 to 10
CC(C)(C)c1ccc(Nc2nc(-c3cccnc3)cs2)cc1 [compound 892, N-(4-tert-butylphenyl)-4-(pyridin-3-yl)thiazol-2-amine] | 1 to 10
CC(C)(C)c1cccc(Nc2nc(-c3cccnc3)cs2)c1 [compound 893, N-(3-tert-butylphenyl)-4-(pyridin-3-yl)thiazol-2-amine] | > 10
CC(C)(C)c1cc(Nc2nc(-c3cccnc3)cs2)cc(C(C)(C)C)c1 [compound 894, N-(3,5-di-tert-butylphenyl)-4-(pyridin-3-yl)thiazol-2-amine] | < 1
CC(C)(C)OC(=O)Nc1ccc(Nc2nc(-c3cccnc3)cs2)cc1 [compound 895, tert-butyl 4-(4-(pyridin-3-yl)thiazol-2-ylamino)phenylcarbamate] | > 10
Clc1ccc(Oc2ccc(Nc3nc(-c4cccnc4)cs3)cc2)cc1 [compound 896, N-(4-(4-chlorophenoxy)phenyl)-4-(pyridin-3-yl)thiazol-2-amine] | < 1
Cc1ccc(Oc2ccc(Nc3nc(-c4cccnc4)cs3)cc2)cc1 [compound 897, N-(4-(p-tolyloxy)phenyl)-4-(pyridin-3-yl)thiazol-2-amine] | < 1
Cc1c(C)c(C)c(C(=O)CCc2cccc(Nc3nc(-c4cccnc4)cs3)c2)c(C)c1C [compound 898, 3-(3-(4-(pyridin-3-yl)thiazol-2-ylamino)phenyl)-1-(2,3,4,5,6-pentamethylphenyl)propan-1-one] | < 1
Cc1c(Nc2nc(-c3cccnc3)cs2)cccc1C(F)(F)F [compound 899, N-(3-(trifluoromethyl)-2-methylphenyl)-4-(pyridin-3-yl)thiazol-2-amine] | 1 to 10
CCCCc1ccc(Nc2nc(-c3cccnc3)cs2)c(C)c1 [compound 900, N-(4-butyl-2-methylphenyl)-4-(pyridin-3-yl)thiazol-2-amine] | < 1
COc1cc(Nc2nc(-c3cccnc3)cs2)cc(OC)c1 [compound 901, N-(3,5-dimethoxyphenyl)-4-(pyridin-3-yl)thiazol-2-amine] | 1 to 10
CCC(C)(C)c1ccc(Oc2ccccc2)c(Nc2nc(-c3cccnc3)cs2)c1 [compound 902, N-(5-tert-pentyl-2-phenoxyphenyl)-4-(pyridin-3-yl)thiazol-2-amine] | < 1
COc1cc(-c2ccccc2)c(C)cc1Nc1nc(-c2cccnc2)cs1 [compound 903] | < 1
O=C(O)c1ccc(Oc2ccc(Nc3nc(-c4cccnc4)cs3)cc2)cc1 [compound 904, 4-(4-(4-(pyridin-3-yl)thiazol-2-ylamino)phenoxy)benzoic acid] | < 1
Cc1ccc(-c2ccccc2)cc1Nc1nc(-c2cccnc2)cs1 [compound 905] | > 10

Compound | EC50 [µM]
Cc1cc(C)cc(Nc2nc(-c3cccnc3)cs2)c1 [compound 906, N-(3,5-dimethylphenyl)-4-(pyridin-3-yl)thiazol-2-amine] | 1 to 10
CCOC(=O)/C=C/c1ccc(Nc2nc(-c3cccnc3)cs2)cc1 [compound 907, (E)-ethyl 3-(4-(4-(pyridin-3-yl)thiazol-2-ylamino)phenyl)acrylate] | > 10
FC(F)(F)c1cccc(Nc2nc(-c3cccnc3)cs2)c1 [compound 908, N-(3-(trifluoromethyl)phenyl)-4-(pyridin-3-yl)thiazol-2-amine] | < 1
O=C(O)Cc1ccc(Nc2nc(-c3cccnc3)cs2)cc1 [compound 909, 2-(4-(4-(pyridin-3-yl)thiazol-2-ylamino)phenyl)acetic acid] | > 10
Cc1noc(NS(=O)(=O)c2ccc(Nc3nc(-c4cccnc4)cs3)cc2)c1C [compound 910] | > 10
O=S(=O)(Nc1ccccn1)c1ccc(Nc2nc(-c3cccnc3)cs2)cc1 [compound 911] | > 10
Fc1cc(Nc2nc(-c3cccnc3)cs2)ccc1OCCCCc1ccccc1 [compound 912, N-(4-(4-phenylbutoxy)-3-fluorophenyl)-4-(pyridin-3-yl)thiazol-2-amine] | < 1
CCCCCCCCOc1ccc(Nc2nc(-c3cccnc3)c(C#N)s2)cc1C(F)(F)F [compound 913, 2-(3-(trifluoromethyl)-4-(octyloxy)phenylamino)-4-(pyridin-3-yl)thiazole-5-carbonitrile] | 1 to 10
CCCCCCCCOc1ccc(Nc2nc(-c3cccnc3)c(F)s2)cc1C(F)(F)F [compound 914, 5-fluoro-N-(3-(trifluoromethyl)-4-(octyloxy)phenyl)-4-(pyridin-3-yl)thiazol-2-amine] | < 1
CCCCCCCCOc1ccc(Nc2nc(-c3csc(C)n3)cs2)cc1C(F)(F)F [compound 915, N-(3-(trifluoromethyl)-4-(octyloxy)phenyl)-4-(2-methylthiazol-4-yl)thiazol-2-amine] | < 1
CCCCCCCCOc1ccc(Nc2nc(-c3csc(N)n3)cs2)cc1C(F)(F)F [compound 916, 4-(2-(3-(trifluoromethyl)-4-(octyloxy)phenylamino)thiazol-4-yl)thiazol-2-amine] | < 1
CCCCCCCCOc1ccc(Nc2nc(C(=O)CSc3ccccn3)cs2)cc1C(F)(F)F [compound 917, 1-(2-(3-(trifluoromethyl)-4-(octyloxy)phenylamino)thiazol-4-yl)-2-(pyridin-2-ylthio)ethanone] | 1 to 10
CCCCCCCCOc1ccc(Nc2nc(-c3cccnc3)c(Cl)s2)cc1C(F)(F)F [compound 918, 5-chloro-N-(3-(trifluoromethyl)-4-(octyloxy)phenyl)-4-(pyridin-3-yl)thiazol-2-amine] | < 1
COc1ncc(-c2csc(Nc3ccc4c(ccn4Cc4ccc(F)cc4)c3)n2)cn1 [compound 919, 1-(4-fluorobenzyl)-N-(4-(2-methoxypyrimidin-5-yl)thiazol-2-yl)-1H-indol-5-amine] | 1 to 10
c1ccc(CCCOc2ccc(Nc3nc(-c4cccnc4)cs3)cc2)cc1 [compound 920, N-(4-(3-phenylpropoxy)phenyl)-4-(pyridin-3-yl)thiazol-2-amine] | < 1
c1ccc(CCCCOc2ccc(Nc3nc(-c4cccnc4)cs3)cc2)cc1 [compound 921, N-(4-(4-phenylbutoxy)phenyl)-4-(pyridin-3-yl)thiazol-2-amine] | < 1
c1cncc(-c2csc(Nc3ccc(OCCCCc4cccs4)cc3)n2)c1 [compound 922, N-(4-(4-(thiophen-2-yl)butoxy)phenyl)-4-(pyridin-3-yl)thiazol-2-amine] | < 1
CCCCCCCCOc1ccc(Nc2nc(-c3cccnc3)c(N)s2)cc1C(F)(F)F [compound 923, N^2-(3-(trifluoromethyl)-4-(octyloxy)phenyl)-4-(pyridin-3-yl)thiazole-2,5-diamine] | < 1
FC(F)(F)c1cc(Nc2nc(-c3cccnc3)cs2)ccc1OCCCOc1ccccc1 [compound 924, N-(4-(3-phenoxypropoxy)-3-(trifluoromethyl)phenyl)-4-(pyridin-3-yl)thiazol-2-amine] | < 1
O=C(O)Cc1ccc(-c2csc(Nc3ccc(OCCCCc4cccs4)c(C(F)(F)F)c3)n2)s1 [compound 925, 2-(5-(2-(4-(4-(thiophen-2-yl)butoxy)-3-(trifluoromethyl)phenylamino)thiazol-4-yl)thiophen-2-yl) acetic acid] | < 1
CCOC(=O)Cc1ccc(-c2csc(Nc3ccc(OCCCCc4cccs4)c(C(F)(F)F)c3)n2)s1 [compound 926, ethyl 2-(5-(2-(4-(4-(thiophen-2-yl)butoxy)-3-(trifluoromethyl)phenylamino)thiazol-4-yl)thiophen-2-yl)acetate] | 1 to 10
O=C(O)Cc1ccc(-c2csc(Nc3ccc(OCCCCc4ccccc4)c(C(F)(F)F)c3)n2)s1 [compound 927, 2-(5-(2-(4-(4-phenylbutoxy)-3-(trifluoromethyl)phenylamino)thiazol-4-yl)thiophen-2-yl)acetic acid] | < 1
CCOC(=O)Cc1ccc(-c2csc(Nc3ccc(OCCCCc4ccccc4)c(C(F)(F)F)c3)n2)s1 [compound 928, ethyl 2-(5-(2-(4-(4-phenylbutoxy)-3-(trifluoromethyl)phenylamino)thiazol-4-yl)thiophen-2-yl)acetate] | 1 to 10
